Like-named read-outs stand apart in the source and are kept apart here.
Columns and labels:
MCF-7 = experiment: Cell viability (MTT) assay, 24 h; format: cell-based, human; settings: for IC50: 24 h treatment, MTT, n = 9, read-out: IC50 ± SD, MCF-7
Protocol: (§1) All cells were treated with compounds for 24 h, and cell viability was determined via the MTT assay. […] The nonfluorinated benzyl–imidazole complex [Ag2(L5)2](PF6)2 was synthesized and screened to determine if the fluorine has any influence on cytotoxicity.
(§2) All cytotoxicity assays were conducted using human cell lines: breast adenocarcinomas (MDA-MB-231 and MCF-7) and non-cancerous epithelial retinal (ARPE-19) cell lines. All cell lines were routinely maintained as monolayer cultures in an appropriate complete medium: MCF-7 and ARPE-19 in high glucose DMEM complete medium (including 10% FBS, 1 mM sodium pyruvate, 2 mM L-glutamine and 1% pen-strep) and MDA-MB-231 in RPMI-1640 complete medium (including 10% FBS, 1 mM sodium pyruvate, 2 mM L-glutamine and 1% pen-strep) and grown in either T-25 or T-75 flasks at 37 °C and 5% CO2. Prior to chemosensitivity studies, cell monolayers were passaged using Trypsin-EDTA (0.05%) and diluted to a concentration of 4 × 10^4 cells/mL. All assays were conducted using 96-well plates, in which 100 μL of the cell suspension was added for 24 h at 37 °C and 5% CO2 and then 100 μL of compound/media dilutions for a further 24 h (compound stocks were made using sterile DMSO at 100 mM prior to dilution and a maximum of 0.1% DMSO used in each assay).

MDA-MB-231 = experiment: Cell viability (MTT) assay, 24 h; format: cell-based, human; settings: for IC50: 24 h treatment, MTT, n = 9, read-out: IC50 ± SD, MDA-MB-231; for MCF-7/MDA-MB-231 SR (selectivity ratio): ratio of IC50 MCF-7 versus MDA-MB-231
Protocol: as §1, §2

ARPE-19 = experiment: Cell viability (MTT) assay, 24 h, noncancerous cells; format: cell-based, human; settings: n = 9, noncancerous retinal epithelia, read-out: IC50 ± SD, ARPE-19
Protocol: as §1, §2

DNA = tested on: DNA; design: method as in PMID 27060216; settings: cited from earlier work
[1] = Homo sapiens, ARPE-19, 24 h treatment

IC50 (MCF-7)	IC50 (MDA-MB-231)	IC50 (MCF-7; Homo sapiens, MCF7)	IC50 (MDA-MB-231; Homo sapiens, MDA-MB-231)	SMILES	Selectivity index (SI) MCF-7 vs ARPE-19 (MCF-7; SI > 1 indicates selectivity for the breast cancer line, * = minimum value)	MCF-7/MDA-MB-231 SR (selectivity ratio) (MDA-MB-231)	IC50 (ARPE-19; 24 h treatment)	Binding constant to DNA (DNA)	IC50 (ARPE-19; [1])
54 ± 3 µM	> 100 µM			[NH2][Pt]([NH2])([Cl])[Cl] [CDDP, cisplatin, reference compound]	≥ 1.84	< 0.54	> 100 µM		
				COc1cccc2c1C(=O)c1c(O)c3c(c(O)c1C2=O)C[C@@](O)(C(=O)CO)C[C@@H]3O[C@H]1C[C@H](N)[C@H](O)[C@H](C)O1 [doxorubicin]				2.33 ± 0.33 × 10^4 M^–1	
		> 100 µM	42.6 ± 0.05 µM	Fc1ccc(Cn2c[n+](Cc3ccc(F)cc3)c3ccccc32)cc1 [HL2(PF6), 1,3-Bis-(4-fluorobenzyl)benzimidazolium hexafluorophosphate]		> 2.35			> 100 µM
		> 100 µM	> 100 µM	Fc1ccc(C[n+]2cn(Cn3c[n+](Cc4ccc(F)cc4)c4ccccc43)c3ccccc32)cc1 [H2L4(PF6)2, 1,1′-Bis-(4-fluorobenzyl)-3,3′-methylenedibenzimidazolium dihexafluorophosphate]					> 100 µM
